Assay results taken from PubChem BioAssay (NCI).
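All cell lines were grown in 96-well plates and treated with compound for 48 hours. TGI denotes the concentration required for complete inhibition of growth.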

Key:
Assay in all cases: growth of human tumour cells (NCI), 48 h
786-0 renal = tested on: 786-0 renal
A498 renal = tested on: A498 renal
A549 NSCLC = tested on: A549 NSCLC
ACHN renal = tested on: ACHN renal
BT-549 breast = tested on: BT-549 breast
CAKI-1 renal = tested on: CAKI-1 renal
CCRF-CEM leukemia = tested on: CCRF-CEM leukemia
COLO 205 colon = tested on: COLO 205 colon
DU-145 prostate = tested on: DU-145 prostate
EKVX NSCLC = tested on: EKVX NSCLC
HCC-2998 colon = tested on: HCC-2998 colon
HCT-116 colon = tested on: HCT-116 colon
HCT-15 colon = tested on: HCT-15 colon
HOP-62 NSCLC = tested on: HOP-62 NSCLC
HT29 colon = tested on: HT29 colon
K-562 leukemia = tested on: K-562 leukemia
KM12 colon = tested on: KM12 colon
M14 melanoma = tested on: M14 melanoma
MALME-3M melanoma = tested on: MALME-3M melanoma
MCF7 breast = tested on: MCF7 breast
MDA-MB-231 breast = tested on: MDA-MB-231 breast
MDA-MB-435 = tested on: MDA-MB-435
MDA-N = tested on: MDA-N
MOLT-4 leukemia = tested on: MOLT-4 leukemia
NCI-H226 lung = tested on: NCI-H226 lung
NCI-H23 lung = tested on: NCI-H23 lung
NCI-H460 lung = tested on: NCI-H460 lung
NCI/ADR-RES ovarian = tested on: NCI/ADR-RES ovarian
OVCAR-3 ovarian = tested on: OVCAR-3 ovarian
OVCAR-4 ovarian = tested on: OVCAR-4 ovarian
OVCAR-5 ovarian = tested on: OVCAR-5 ovarian
OVCAR-8 ovarian = tested on: OVCAR-8 ovarian
PC-3 prostate = tested on: PC-3 prostate
RPMI-8226 leukemia = tested on: RPMI-8226 leukemia
RXF 393 renal = tested on: RXF 393 renal
SF-268 CNS = tested on: SF-268 CNS
SF-295 CNS = tested on: SF-295 CNS
SF-539 CNS = tested on: SF-539 CNS
SK-MEL-2 melanoma = tested on: SK-MEL-2 melanoma
SK-MEL-28 melanoma = tested on: SK-MEL-28 melanoma
SK-OV-3 ovarian = tested on: SK-OV-3 ovarian
SN12C renal = tested on: SN12C renal
SNB-19 CNS = tested on: SNB-19 CNS
SNB-75 CNS = tested on: SNB-75 CNS
SW-620 colon = tested on: SW-620 colon
T-47D breast = tested on: T-47D breast
U251 CNS = tested on: U251 CNS
UACC-257 melanoma = tested on: UACC-257 melanoma
UACC-62 melanoma = tested on: UACC-62 melanoma
UO-31 renal = tested on: UO-31 renal
HL-60(TB) leukemia = tested on: HL-60(TB) leukemia
IGROV1 ovarian = tested on: IGROV1 ovarian
LOX IMVI melanoma = tested on: LOX IMVI melanoma
SR leukemia = tested on: SR leukemia
TK-10 renal = tested on: TK-10 renal
HOP-92 NSCLC = tested on: HOP-92 NSCLC
SK-MEL-5 melanoma = tested on: SK-MEL-5 melanoma

## CC(C)(C)OC/C=C(\Br)CO
786-0 renal
  TGI: > 100 µM
A498 renal
  TGI: > 100 µM
A549 NSCLC
  TGI: > 100 µM
ACHN renal
  TGI: > 100 µM
BT-549 breast
  TGI: > 100 µM
CAKI-1 renal
  TGI: > 100 µM
CCRF-CEM leukemia
  TGI: > 100 µM
COLO 205 colon
  TGI: > 100 µM
DU-145 prostate
  TGI: > 100 µM
EKVX NSCLC
  TGI: > 100 µM
HCC-2998 colon
  TGI: > 100 µM
HCT-116 colon
  TGI: > 100 µM
HCT-15 colon
  TGI: > 100 µM
HOP-62 NSCLC
  TGI: > 100 µM
HT29 colon
  TGI: > 100 µM
K-562 leukemia
  TGI: > 100 µM
KM12 colon
  TGI: > 100 µM
M14 melanoma
  TGI: > 100 µM
MALME-3M melanoma
  TGI: > 100 µM
MCF7 breast
  TGI: > 100 µM
MDA-MB-231 breast
  TGI: > 100 µM
MDA-MB-435
  TGI: > 100 µM
MDA-N
  TGI: > 100 µM
MOLT-4 leukemia
  TGI: > 100 µM
NCI-H226 lung
  TGI: > 100 µM
NCI-H23 lung
  TGI: > 100 µM
NCI-H460 lung
  TGI: > 100 µM
NCI/ADR-RES ovarian
  TGI: > 100 µM
OVCAR-3 ovarian
  TGI: > 100 µM
OVCAR-4 ovarian
  TGI: > 100 µM
OVCAR-5 ovarian
  TGI: > 100 µM
OVCAR-8 ovarian
  TGI: > 100 µM
PC-3 prostate
  TGI: > 100 µM
RPMI-8226 leukemia
  TGI: > 100 µM
RXF 393 renal
  TGI: > 100 µM
SF-268 CNS
  TGI: > 100 µM
SF-295 CNS
  TGI: > 100 µM
SF-539 CNS
  TGI: > 100 µM
SK-MEL-2 melanoma
  TGI: > 100 µM
SK-MEL-28 melanoma
  TGI: > 100 µM
SK-OV-3 ovarian
  TGI: > 100 µM
SN12C renal
  TGI: > 100 µM
SNB-19 CNS
  TGI: > 100 µM
SNB-75 CNS
  TGI: > 100 µM
SW-620 colon
  TGI: > 100 µM
T-47D breast
  TGI: > 100 µM
U251 CNS
  TGI: > 100 µM
UACC-257 melanoma
  TGI: > 100 µM
UACC-62 melanoma
  TGI: > 100 µM
UO-31 renal
  TGI: > 100 µM

## CCCCN(CCCC)CC(O)c1cc(-c2ccc(Cl)c(Cl)c2)nc2c(Cl)cc(Cl)cc12 (stereo unspecified)
786-0 renal
  TGI: > 100 µM
A498 renal
  TGI: > 100 µM
ACHN renal
  TGI: > 100 µM
CCRF-CEM leukemia
  TGI: > 100 µM
COLO 205 colon
  TGI: > 100 µM
DU-145 prostate
  TGI: > 100 µM
EKVX NSCLC
  TGI: > 100 µM
HCC-2998 colon
  TGI: > 100 µM
HCT-116 colon
  TGI: > 100 µM
HCT-15 colon
  TGI: > 100 µM
HL-60(TB) leukemia
  TGI: > 100 µM
HOP-62 NSCLC
  TGI: > 100 µM
HT29 colon
  TGI: > 100 µM
IGROV1 ovarian
  TGI: > 100 µM
LOX IMVI melanoma
  TGI: > 100 µM
MALME-3M melanoma
  TGI: > 100 µM
MCF7 breast
  TGI: > 100 µM
MDA-MB-231 breast
  TGI: > 100 µM
MDA-MB-435
  TGI: > 100 µM
MDA-N
  TGI: > 100 µM
MOLT-4 leukemia
  TGI: > 100 µM
NCI-H23 lung
  TGI: > 100 µM
NCI-H460 lung
  TGI: > 100 µM
NCI/ADR-RES ovarian
  TGI: > 100 µM
OVCAR-3 ovarian
  TGI: > 100 µM
OVCAR-4 ovarian
  TGI: > 100 µM
OVCAR-5 ovarian
  TGI: > 100 µM
OVCAR-8 ovarian
  TGI: > 100 µM
PC-3 prostate
  TGI: > 100 µM
RPMI-8226 leukemia
  TGI: > 100 µM
SF-268 CNS
  TGI: > 100 µM
SF-295 CNS
  TGI: > 100 µM
SF-539 CNS
  TGI: > 100 µM
SK-MEL-2 melanoma
  TGI: > 100 µM
SK-MEL-28 melanoma
  TGI: > 100 µM
SK-OV-3 ovarian
  TGI: > 100 µM
SN12C renal
  TGI: > 100 µM
SNB-19 CNS
  TGI: > 100 µM
SNB-75 CNS
  TGI: > 100 µM
SR leukemia
  TGI: > 100 µM
SW-620 colon
  TGI: 39.1 µM
T-47D breast
  TGI: > 100 µM
TK-10 renal
  TGI: > 100 µM
U251 CNS
  TGI: > 100 µM
UACC-257 melanoma
  TGI: > 100 µM
UACC-62 melanoma
  TGI: > 100 µM
UO-31 renal
  TGI: > 100 µM

## C#CCCCC(=C)C[C@@H]1OC(=O)[C@H](C)[C@@H]1O
786-0 renal
  TGI: > 100 µM
A498 renal
  TGI: > 100 µM
A549 NSCLC
  TGI: > 100 µM
ACHN renal
  TGI: > 100 µM
CAKI-1 renal
  TGI: > 100 µM
CCRF-CEM leukemia
  TGI: > 100 µM
COLO 205 colon
  TGI: > 100 µM
DU-145 prostate
  TGI: > 100 µM
EKVX NSCLC
  TGI: > 100 µM
HCC-2998 colon
  TGI: > 100 µM
HCT-116 colon
  TGI: > 100 µM
HCT-15 colon
  TGI: > 100 µM
HL-60(TB) leukemia
  TGI: > 100 µM
HOP-62 NSCLC
  TGI: > 100 µM
HOP-92 NSCLC
  TGI: > 100 µM
K-562 leukemia
  TGI: > 100 µM
KM12 colon
  TGI: > 100 µM
LOX IMVI melanoma
  TGI: > 100 µM
M14 melanoma
  TGI: > 100 µM
MCF7 breast
  TGI: > 100 µM
MDA-MB-435
  TGI: > 100 µM
MDA-N
  TGI: > 100 µM
MOLT-4 leukemia
  TGI: > 100 µM
NCI-H23 lung
  TGI: > 100 µM
NCI-H460 lung
  TGI: > 100 µM
NCI/ADR-RES ovarian
  TGI: > 100 µM
OVCAR-3 ovarian
  TGI: > 100 µM
OVCAR-4 ovarian
  TGI: > 100 µM
OVCAR-5 ovarian
  TGI: > 100 µM
PC-3 prostate
  TGI: > 100 µM
RPMI-8226 leukemia
  TGI: > 100 µM
RXF 393 renal
  TGI: > 100 µM
SF-295 CNS
  TGI: > 100 µM
SK-MEL-2 melanoma
  TGI: > 100 µM
SK-MEL-28 melanoma
  TGI: > 100 µM
SK-MEL-5 melanoma
  TGI: > 100 µM
SK-OV-3 ovarian
  TGI: > 100 µM
SN12C renal
  TGI: > 100 µM
SNB-19 CNS
  TGI: > 100 µM
SNB-75 CNS
  TGI: > 100 µM
SW-620 colon
  TGI: > 100 µM
T-47D breast
  TGI: > 100 µM
U251 CNS
  TGI: > 100 µM
UO-31 renal
  TGI: > 100 µM
